From paper PMC10615754 (Molecular Psychiatry, 2023)

Key:
DAT = molecular target: T1, DAT (Mus musculus, UniProt Q61327); assay: Competition binding of [3H]WIN35,428 to DAT in mouse striatal homogenates
T1 construct: from tissue; host or cells: striatum of male SERT+/- mice
Description: (§1) Thus, in the current experiments, male constitutive SERT+/- mice weighing 25-30g were used, 3 per assay. […] Mice were euthanized by cervical dislocation without use of anesthesia to prevent anesthetic-induced attenuation of transporter binding sites. Whole hippocampi or striatum were harvested and placed in 30 ml of ice-cold buffer specific to each assay.
(§2) Tissue Collection and Preparation: Mice were humanely euthanized by cervical dislocation and decapitated without anesthesia to collect fresh brain tissues without compromising transporter binding properties. Striatum from each mouse were placed in a round 50 ml polycarbonate tube (Nalge Nunc, Rochester, NY, USA) containing 30 mM sodium phosphate and 0.32 M sucrose for DAT binding as in Reith and Coffey^16. […] All tissues were homogenized at 26,000 RPM for 1 min with a Polytron tissue homogenizer (Brinkman Instruments, Westbury, NY, USA). […] The supernate was discarded, and the pellet re-suspended in 25 ml buffer on ice using a Potter Elvehjem 10 ml glass and teflon homogenizer. The homogenate was re-centrifuged for 10 min at 36,000 x g.
The final pellet was re-suspended in 30 mM sodium phosphate and 0.32 M sucrose pH 7.4 at 4°C, and binding assays were carried out in duplicate for 2 hours at 4°C.
Labeled homogenates were captured through filtration under vacuum onto glass fiber filters pre-soaked in 0.5% polyethyleneimine (Sigma) on a Brandel tissue harvester (Gaithersburg, MD). Filters were washed twice more with 4 ml of buffer.
(§3) Data Analysis: Binding data were analyzed using non-linear regression curve fitting with GraphPad Prism (La Jolla, CA, USA).

hOCT3 [1] = molecular target: T2, hOCT3 (Homo sapiens, UniProt O75751); assay: Inhibition of [3H]MPP+ uptake into HEK293 cells stably expressing hOCT3; type: cell-based
T2 construct: expressed in transfected cells
T2 sequence (O75751 1-556): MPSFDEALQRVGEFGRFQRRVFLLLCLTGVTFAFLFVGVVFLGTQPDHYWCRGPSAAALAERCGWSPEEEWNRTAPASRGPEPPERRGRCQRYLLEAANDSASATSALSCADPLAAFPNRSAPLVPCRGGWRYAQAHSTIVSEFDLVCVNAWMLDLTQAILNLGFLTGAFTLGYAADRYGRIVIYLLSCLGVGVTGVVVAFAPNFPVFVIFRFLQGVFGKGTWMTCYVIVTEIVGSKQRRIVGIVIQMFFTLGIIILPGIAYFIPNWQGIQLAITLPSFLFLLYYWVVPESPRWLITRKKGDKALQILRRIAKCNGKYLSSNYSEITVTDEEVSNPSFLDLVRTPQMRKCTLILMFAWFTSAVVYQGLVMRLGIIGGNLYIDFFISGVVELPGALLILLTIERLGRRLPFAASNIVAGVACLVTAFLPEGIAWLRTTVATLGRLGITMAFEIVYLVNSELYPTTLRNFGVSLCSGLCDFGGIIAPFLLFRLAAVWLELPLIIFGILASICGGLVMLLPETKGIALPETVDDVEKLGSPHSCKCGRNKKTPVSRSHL
Description: Mechanically detached HEK293 cells grown to confluence in 4-5 ml flasks were suspended in 3-4 ml of media in a 15 ml polypropylene conical tube.
Cells were harvested on a Brandel 48 well harvester by vacuum filtration onto glass fiber filter strips (Brandel, Gaithersburg, MD, USA) pre-soaked in a 1% polyethalineamine saline solution. […] Protein concentration of the cell suspension was determined after solubilization in 1N NaOH against known concentrations of bovine serum albumen with Bradford reagent as for mouse brain homogenates.
Data Analysis: Experiments were performed in triplicate. Percent of total binding was calculated, and uptake kinetics determined with GraphPad Prism.

hOCT3 [2] = molecular target: T2, hOCT3; assay: Real-time uptake of fluorescent substrate ASP+ in YFP-hOCT3 HEK293 cells; type: cell-based; conditions: 3 µM ASP+
OCT3+/+ and OCT3-/- mice [3] = assay: Conditioned place preference (CPP); type: in vivo; conditions: ethanol 1 g/kg + cocaine […] i.p.
Description: In the same procedure, sensitization of cocaine-induced locomotion (in the presence and absence of ethanol) was measured. Loss of righting reflex (LORR) was assessed as described previously [36].
For CPP and sensitization to the locomotor stimulant effects of these drugs, mice were injected i.p. with physiological saline, saline + EtOH (100 mg/kg), saline + cocaine (3.2 mg/kg), or EtOH (100 mg/kg) + cocaine (3.2 mg/kg) immediately prior to assay. […] For LORR behavioral assays, mice were injected i.p. with a sedative dose of EtOH, at 3.2 g/kg (base weight per kilogram body weight).
CPP. Conditioned place preference (CPP) in rodents, which is often used to model abuse-related drug effects, is shown by a preference for an environment previously paired with a drug compared with an environment previously paired with vehicle^31, 32. Mice were exposed to an unbiased, one-compartment place-conditioning procedure, with sessions conducted once per day (see^12, 13). […]
This analysis was followed with separate two-way ANOVAs to further probe sex*genotype and treatment*genotype interactions. […] There were no interaction or main effects of sex on sensitization, so male and female data were pooled for further analysis, in which effects of genotype and days were assessed separately for each drug treatment using two-way repeated measures ANOVA’s. […]

OCT3+/+ and OCT3-/- mice [4] = assay: Sensitization of locomotor activity during CPP conditioning sessions; type: in vivo; conditions: for Locomotor sensitization, first vs. 4th session Mean Difference: sexes pooled, ethanol 1 g/kg and/or cocaine […]
NET [5] = molecular target: T3, NET (Mus musculus, UniProt O55192); conditions: ethanol 3.4 nM up to 1 M, hippocampal homogenates
Description: as §1
Tissue Collection and Preparation: Mice were humanely euthanized by cervical dislocation and decapitated without anesthesia to collect fresh brain tissues without compromising transporter binding properties. Striatum from each mouse were placed in a round 50 ml polycarbonate tube (Nalge Nunc, Rochester, NY, USA) containing 30 mM sodium phosphate and 0.32 M sucrose for DAT binding as in Reith and Coffey^16. […] All tissues were homogenized at 26,000 RPM for 1 min with a Polytron tissue homogenizer (Brinkman Instruments, Westbury, NY, USA). […] The supernate was discarded, and the pellet re-suspended in 25 ml buffer on ice using a Potter Elvehjem 10 ml glass and teflon homogenizer. The homogenate was re-centrifuged for 10 min at 36,000 x g. […]
as §3

SERT = SERT (Mus musculus, UniProt Q60857); conditions: ethanol 3.4 nM up to 1 M, hippocampal homogenates
Description: as §1, §2
Radioligand binding to SERT was performed on hippocampal homogenates according to the procedure of D’Amato et al.^19. […]
as §3

hDAT = hDAT (Homo sapiens, UniProt Q01959); conditions: 10 µM APP+
hNET = hNET (Homo sapiens, UniProt P23975)
[6] = rats, systemic administration of 1 mg/kg of ethanol (i.p.); cited from earlier work
[7] = test system: DA clearance in dorsal striatum; assay: In vivo high-speed chronoamperometry of DA clearance in dorsal striatum; conditions: for percent change in T20-60 value from baseline / percent change in peak amplitude of DA signal from baseline: dorsal striatum, 2 minutes following administration, mean and SEM; for Effect on DA clearance time (T80): intrastriatal application, ethanol ~0.5-10 mM, cocaine 1-10 µM at recording site, 2 min after drug; for EC50, half maximally effective amount to inhibit DA clearance (T80) / Emax, maximal inhibition of DA clearance (percent increase in T80): 2 min post-intrastriatal application; for Emax, maximal inhibition of DA clearance (percent increase in T80): 4-parameter logistic fit
hSERT = hSERT (Homo sapiens, UniProt P31645); conditions: 10 µM cocaine, 10 µM APP+
hOCT3 [8] = molecular target: T2, hOCT3; design: method as in PMID 29773909; conditions: previously shown; cited from earlier work
OCT3 = test system: OCT3; design: method as in PMID 29773909, PMID 16581093; conditions: at concentrations lower than 100 µM; cited from earlier work
NET [9] = molecular target: T3, NET; design: from tissue; host or cells: hippocampus of male SERT+/- mice; method as in earlier work; conditions: known Kd from prior studies, used to calculate Ki; ref 20 (SI); read-out: Kd of hot ligand at NET; cited from earlier work

T1 sequence (Q61327 whole entry): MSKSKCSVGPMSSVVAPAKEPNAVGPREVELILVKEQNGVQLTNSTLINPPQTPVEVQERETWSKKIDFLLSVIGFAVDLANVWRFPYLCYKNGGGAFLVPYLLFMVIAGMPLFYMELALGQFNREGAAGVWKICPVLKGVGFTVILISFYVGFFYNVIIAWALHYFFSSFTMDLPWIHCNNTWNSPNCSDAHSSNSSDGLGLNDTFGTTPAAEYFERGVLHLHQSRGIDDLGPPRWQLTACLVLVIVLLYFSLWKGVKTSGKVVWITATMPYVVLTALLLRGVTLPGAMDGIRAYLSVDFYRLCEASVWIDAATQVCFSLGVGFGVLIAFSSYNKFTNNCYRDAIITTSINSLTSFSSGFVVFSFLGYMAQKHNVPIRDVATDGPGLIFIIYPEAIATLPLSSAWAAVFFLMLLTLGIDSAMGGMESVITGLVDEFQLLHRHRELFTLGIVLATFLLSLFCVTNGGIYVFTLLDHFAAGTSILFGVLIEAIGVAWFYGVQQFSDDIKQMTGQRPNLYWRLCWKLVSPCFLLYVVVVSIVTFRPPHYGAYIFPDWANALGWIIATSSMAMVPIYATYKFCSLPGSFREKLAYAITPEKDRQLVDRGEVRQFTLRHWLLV
T3 sequence (O55192 whole entry): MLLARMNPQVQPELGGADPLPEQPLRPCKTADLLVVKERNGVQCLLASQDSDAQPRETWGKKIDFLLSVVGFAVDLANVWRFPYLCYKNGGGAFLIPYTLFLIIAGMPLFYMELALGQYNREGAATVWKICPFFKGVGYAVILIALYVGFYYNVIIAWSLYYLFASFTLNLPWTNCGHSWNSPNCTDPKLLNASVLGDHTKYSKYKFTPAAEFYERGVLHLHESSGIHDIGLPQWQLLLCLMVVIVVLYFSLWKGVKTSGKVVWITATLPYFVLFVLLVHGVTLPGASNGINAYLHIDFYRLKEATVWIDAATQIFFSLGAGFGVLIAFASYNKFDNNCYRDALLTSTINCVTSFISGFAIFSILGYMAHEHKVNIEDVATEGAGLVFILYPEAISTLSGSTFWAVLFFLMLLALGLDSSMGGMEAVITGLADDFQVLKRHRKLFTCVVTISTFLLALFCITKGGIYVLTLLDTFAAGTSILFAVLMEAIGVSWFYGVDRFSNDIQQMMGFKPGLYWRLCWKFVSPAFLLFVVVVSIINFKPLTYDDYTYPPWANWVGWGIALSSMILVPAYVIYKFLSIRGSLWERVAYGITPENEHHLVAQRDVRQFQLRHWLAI
hDAT, sequence (Q01959 whole entry): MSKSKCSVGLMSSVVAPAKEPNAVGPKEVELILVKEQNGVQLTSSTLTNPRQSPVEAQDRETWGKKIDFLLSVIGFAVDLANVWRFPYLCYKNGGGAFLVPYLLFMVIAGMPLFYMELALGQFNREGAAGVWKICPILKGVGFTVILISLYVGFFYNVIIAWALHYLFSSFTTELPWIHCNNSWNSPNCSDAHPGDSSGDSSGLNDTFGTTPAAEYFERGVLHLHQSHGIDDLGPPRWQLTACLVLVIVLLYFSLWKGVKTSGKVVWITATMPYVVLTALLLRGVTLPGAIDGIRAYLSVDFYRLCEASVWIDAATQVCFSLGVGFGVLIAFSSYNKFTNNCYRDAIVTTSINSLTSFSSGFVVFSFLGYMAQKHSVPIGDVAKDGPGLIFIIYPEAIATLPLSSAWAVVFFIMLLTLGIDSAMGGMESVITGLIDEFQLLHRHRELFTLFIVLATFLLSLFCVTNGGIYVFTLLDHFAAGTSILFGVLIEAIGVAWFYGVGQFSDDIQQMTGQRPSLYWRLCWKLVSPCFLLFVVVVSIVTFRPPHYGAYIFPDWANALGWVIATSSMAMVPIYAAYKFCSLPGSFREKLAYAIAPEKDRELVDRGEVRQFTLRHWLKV
hSERT, sequence (P31645 whole entry): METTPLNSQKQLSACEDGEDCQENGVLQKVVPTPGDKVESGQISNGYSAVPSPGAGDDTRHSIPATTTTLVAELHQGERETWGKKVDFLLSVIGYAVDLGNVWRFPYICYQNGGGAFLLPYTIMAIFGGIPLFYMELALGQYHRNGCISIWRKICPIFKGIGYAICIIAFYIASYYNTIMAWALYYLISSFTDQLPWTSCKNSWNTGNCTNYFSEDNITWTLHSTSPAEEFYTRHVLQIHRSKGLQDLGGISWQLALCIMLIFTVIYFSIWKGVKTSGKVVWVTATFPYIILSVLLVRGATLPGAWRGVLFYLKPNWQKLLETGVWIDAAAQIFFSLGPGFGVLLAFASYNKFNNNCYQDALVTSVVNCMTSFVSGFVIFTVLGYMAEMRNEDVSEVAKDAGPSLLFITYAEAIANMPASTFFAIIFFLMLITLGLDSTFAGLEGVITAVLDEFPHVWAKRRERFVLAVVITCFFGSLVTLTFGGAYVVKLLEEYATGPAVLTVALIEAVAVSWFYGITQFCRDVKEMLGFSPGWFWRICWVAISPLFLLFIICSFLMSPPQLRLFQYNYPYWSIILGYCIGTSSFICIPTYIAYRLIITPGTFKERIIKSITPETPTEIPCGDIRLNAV
hNET, sequence (P23975 whole entry): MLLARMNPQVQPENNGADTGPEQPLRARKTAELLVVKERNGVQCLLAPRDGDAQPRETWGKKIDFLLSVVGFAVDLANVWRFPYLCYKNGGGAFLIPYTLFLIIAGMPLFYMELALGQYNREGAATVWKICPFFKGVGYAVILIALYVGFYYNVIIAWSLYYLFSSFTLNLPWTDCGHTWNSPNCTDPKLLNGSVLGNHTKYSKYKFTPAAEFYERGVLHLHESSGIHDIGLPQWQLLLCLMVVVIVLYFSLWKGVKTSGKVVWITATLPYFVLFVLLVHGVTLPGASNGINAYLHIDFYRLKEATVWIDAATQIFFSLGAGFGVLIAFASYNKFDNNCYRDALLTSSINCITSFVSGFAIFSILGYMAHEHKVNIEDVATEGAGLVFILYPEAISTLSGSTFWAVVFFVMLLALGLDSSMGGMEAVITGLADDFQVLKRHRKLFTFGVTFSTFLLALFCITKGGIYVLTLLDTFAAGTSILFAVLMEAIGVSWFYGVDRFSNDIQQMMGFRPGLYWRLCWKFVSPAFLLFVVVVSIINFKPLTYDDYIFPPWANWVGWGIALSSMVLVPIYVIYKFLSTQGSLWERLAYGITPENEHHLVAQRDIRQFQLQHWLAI
SERT, sequence (Q60857 whole entry): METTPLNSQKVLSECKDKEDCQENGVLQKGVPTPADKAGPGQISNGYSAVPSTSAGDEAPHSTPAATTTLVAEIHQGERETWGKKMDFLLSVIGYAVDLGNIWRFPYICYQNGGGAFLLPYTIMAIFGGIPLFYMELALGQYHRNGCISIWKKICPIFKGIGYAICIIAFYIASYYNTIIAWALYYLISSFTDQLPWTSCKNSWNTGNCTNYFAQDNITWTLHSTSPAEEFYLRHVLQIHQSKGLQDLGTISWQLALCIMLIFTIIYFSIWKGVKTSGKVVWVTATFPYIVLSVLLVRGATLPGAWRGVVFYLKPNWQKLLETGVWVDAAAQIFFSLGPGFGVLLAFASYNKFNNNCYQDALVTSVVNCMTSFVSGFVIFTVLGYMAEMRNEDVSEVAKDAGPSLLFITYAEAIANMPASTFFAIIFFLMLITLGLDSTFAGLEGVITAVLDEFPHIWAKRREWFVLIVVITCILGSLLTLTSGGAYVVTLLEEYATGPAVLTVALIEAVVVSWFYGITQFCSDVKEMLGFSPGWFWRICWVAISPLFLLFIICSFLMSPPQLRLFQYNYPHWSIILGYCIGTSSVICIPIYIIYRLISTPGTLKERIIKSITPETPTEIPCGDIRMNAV

With Fc1ccc(C(OCCN2CCN(CCCc3ccccc3)CC2)c2ccc(F)cc2)cc1 [GBR12909] the Ki (DAT; 2.7 nM [3H]WIN35,428, striatal homogenates, mean (95% CI), N = 3 mice, read-out: Ki for displacement of [3H]WIN35,428 binding to DAT) was 1 nM.
In the case of CCO [ethanol], the “Displacement of [3H]WIN35,428 binding to DAT” value (DAT; ethanol 3.4 nM up to 1 M, striatal homogenates) is reported as “did not displace”, the Ki (hOCT3 [1]; hOCT3 HEK293 cells, N = 5 replicate assays in triplicate) is reported as 4.2 ± 0.2 mM and the “Inhibition of ASP+ uptake” value (hOCT3 [2]; 30 mM ethanol, A.U.C. T80-150 s) is reported as ~ 50%. For the same molecule, the “Block of ASP+ uptake” value (hOCT3 [2]; 100 mM ethanol) was “fully blocked uptake of ASP^+”, the “Potentiation of CPP for cocaine by ethanol” value (OCT3+/+ and OCT3-/- mice [3]) was “did not potentiate CPP for cocaine” and the “Locomotor sensitization, first vs. 4th session Mean Difference” value (OCT3+/+ and OCT3-/- mice [4]; OCT3+/+ mice) was −12.01. The “Sensitization of locomotor activity” value (OCT3+/+ and OCT3-/- mice [4]; ethanol alone, OCT3+/+ and OCT3-/- mice) was “no ethanol-induced sensitization”, the “Displacement of [3H]nisoxetine binding to NET” value (NET [5]) was “did not displace” and the “Displacement of [3H]citalopram binding to SERT” value (SERT) was “did not displace”. For the same molecule, the “Inhibition of APP+ uptake into hDAT HEK293 cells” value (hDAT; highest ethanol concentration tested (100 mM)) was “only modestly inhibited uptake”, the “Inhibition of APP+ uptake into hNET HEK293 cells” value (hNET) was “only modestly inhibited uptake” and the “Dialysate ethanol levels in the nucleus accumbens” value [6] was “approximately 6 mM”. The “percent change in T20-60 value from baseline” value (shortened to “percent change in T20-60 value”) ([7]; OCT3+/+ mice) was 123 ± 8 (14) percent, the “percent change in peak amplitude of DA signal from baseline” value (“percent change in peak amplitude” for short) ([7]; OCT3+/+ mice) was 80 ± 8 (14) percent and the “Effect on DA clearance time (T80)” value ([7]; OCT3+/+ mice) was “increased T80 DA clearance time”. The “percent change in T20-60 value” value ([7]; OCT3-/- mice) was 100 ± 6 (17)^###/$$ percent, the “percent change in peak amplitude” value ([7]; OCT3-/- mice) was 70 ± 8 (17) percent and the “Effect on DA clearance time (T80)” value ([7]; OCT3-/- mice) was “did not inhibit DA clearance”.
With COC(=O)[C@H]1[C@@H](OC(=O)c2ccccc2)C[C@@H]2CC[C@H]1N2C [cocaine] the “Locomotor sensitization, first vs. 4th session Mean Difference” value (OCT3+/+ and OCT3-/- mice [4]; OCT3+/+ mice) was -9.84, the “Locomotor sensitization, first vs. 4th session Mean Difference” value (OCT3+/+ and OCT3-/- mice [4]; OCT3-/- mice) was -31.91 and the “Block of APP+ uptake into hDAT HEK293 cells” value (hDAT; 10 µM cocaine) was “blocked APP^+ uptake”. For the same molecule, the “Block of APP+ uptake into hSERT HEK293 cells” value (hSERT) was “blocked APP^+ uptake”, the “Block of fluorescent substrate uptake in hOCT3 HEK293 cells” value (hOCT3 [8]) was “does not block fluorescent substrate uptake” and the “Activity at OCT3” value (OCT3) was “does not have activity at OCT3”. The “EC50, half maximally effective amount to inhibit DA clearance (T80)” value ([7]; OCT3+/+ mice) was 35 ± 9 pmol, the “Emax, maximal inhibition of DA clearance (percent increase in T80)” value ([7]; OCT3+/+ mice) was 150 ± 13% and the “percent change in T20-60 value” value ([7]; OCT3+/+ mice) was 140 ± 8 (16)**/^† percent. For the same molecule, the “percent change in peak amplitude” value ([7]; OCT3+/+ mice) was 109 ± 14 (16) percent, the “Effect on DA clearance time (T80)” value ([7]; OCT3+/+ mice) was “inhibited DA clearance” and the “EC50, half maximally effective amount to inhibit DA clearance (T80)” value ([7]; OCT3-/- mice) was 23 ± 16 pmol. For the same molecule, the “Emax, maximal inhibition of DA clearance (percent increase in T80)” value ([7]; OCT3-/- mice) was 154 ± 15%, the “percent change in T20-60 value” value ([7]; OCT3-/- mice) was 148 ± 14 (15) percent and the “percent change in peak amplitude” value ([7]; OCT3-/- mice) was 106 ± 16 (15) percent. The “Effect on DA clearance time (T80)” value ([7]; OCT3-/- mice) was “inhibited DA clearance”.
Molecule C[n+]1ccc(-c2ccccc2)cc1 [[^3H]MPP^+, 1-methyl-4-phenylpyridinium] has a Km (hOCT3 [1]; used to determine Ki values, read-out: Km for uptake in OCT3 over-expressing cells) of 1 mM.
For CNCCC(Oc1ccccc1OC)c1ccccc1 (stereo not drawn) [[^3H]Nisoxetine], the Kd (NET [9]) is given as 2.5 nM.
COC(=O)[C@H]1[C@@H](c2ccc(F)cc2)C[C@@H]2CC[C@H]1N2C [[^3H]WIN35,428] showed a Kd (DAT; saturation assays on striatum of 5 C57BL/6J mice, used to calculate Ki, read-out: Kd of hot ligand at DAT) of 7.8 nM.
In the case of C[C@]12C[C@H](O)[C@H]3[C@@H](CCC4=CC(=O)CC[C@@]43C)[C@@H]1CC[C@@H]2C(=O)CO [corticosterone], the “Block of ASP+ uptake” value (hOCT3 [2]; 10 µM corticosterone) is reported as “fully blocked uptake of ASP^+”.
